Measurements reported in publication PMC7160673, “A Degenerate Peptide Library Approach to Reveal Sequence Determinants of Methyllysine-Driven Protein Interactions” (Frontiers in Cell and Developmental Biology, 2020).

Legend:
Assay type in all cases: binding
[1] = system: Millipore #07-449, anti-H3K27me3; assay: Histone peptide microarray, Millipore 07-449; conditions: Millipore 07-449 (anti-H3K27me3) hits, average signal per peptide
CST 9733 (anti-H3K27me3) = assay: Histone peptide microarray, CST 9733; conditions: histone peptide array signal normalized to the highest peptide average per subarray, hits; CST 9733 LOT:14 dilution 1:5,000
[2] = system: ABClonal #A2355, anti-H3K4me1; assay: Histone peptide microarray, ABclonal A2355; conditions: Abclonal A2355 (anti-H3K4me1) hits
Procedure: (§1) Peptide microarrays were fabricated using an Aushon 2470 microarrayer and used as described ([Cornett et al., 2017]) with the following modifications. Protein and antibody hybridization steps were performed in buffer containing 25 mM HEPES pH 7.5, 100 mM NaCl, 0.5% BSA (w/v), and 0.1% NP-40. Slides were washed 3 × 5 min in PBS supplemented with 0.1% Tween-20 between each hybridization step. Antibodies used were primary anti-GST (Sigma #7781, 1:2,000 dilution) and an AlexaFluor 647-labeled secondary antibody (Life Technologies A-21245, 1:5,000 dilution). […] Full lists of peptides queried by array analysis are in Supplementary Table S2.

[3] = system: Abcam #ab8895, anti-H3K4me1; assay: Histone peptide microarray, Abcam ab8895; conditions: Abcam ab8895 (anti-H3K4me1) hits, average signal per peptide
53BP1 TTD = assay: Histone peptide microarray, 53BP1 TTD; conditions: 53BP1 TTD hits, average signal per peptide
In short: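 Steps: print histone peptide microarray; incubate with protein or antibody in 25 mM HEPES pH 7.5, 100 mM NaCl, 0.5% BSA, 0.1% NP-40; wash three times for 5 min (PBS, 0.1% Tween-20); apply anti-GST at 1:2,000; wash; apply AlexaFluor 647-labeled secondary at 1:5,000; scan fluorescence.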

[4] = system: Active Motif #39161, anti-H3K9me3; assay: Histone peptide microarray, Active Motif 39161; conditions: Active Motif 39161 (anti-H3K9me3) hits
MPP8 chromo = target: T1, MPP8 chromo (Homo sapiens, UniProt Q99549); assay: Histone peptide microarray, MPP8 chromo; conditions: normalized histone peptide array signal, hits; hybridization with 1 M MPP8 chromo (so in the source); two subarrays
T1 construct: 50-118; made in house; host or cells: E. coli BL21
T1 sequence (Q99549 50-118): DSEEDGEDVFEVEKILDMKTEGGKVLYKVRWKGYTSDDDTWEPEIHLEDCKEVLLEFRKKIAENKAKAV
Procedure: as §1

ARTK(Me)QTARKSTGGKAPRK(Ac)QL-Peg-Biot [H3.1K4me1K18ac]
Avg Signal [1]: 0.002272
Avg Signal (CST 9733 (anti-H3K27me3)): 1.355e-5
Avg Signal [2]: 0.5708
Avg Signal [3]: 0.7343

ACitTK(Me3)QTARK(Ac)STGGK(Ac)APRK(Ac)QL-K(Biot)-NH2 [H3.1Cit2K4me3K9acK14acK18ac]
Avg Signal [1]: 0.0318
Avg Signal (CST 9733 (anti-H3K27me3)): 0.00661
Avg Signal [2]: 0.0002223
Avg Signal (53BP1 TTD): 0.1358
Avg Signal [4]: 0.03654

ARTK(Me2)QTARK(Ac)STGGK(Ac)APRK(Ac)QL-K(Biot)-NH2 [H3.1K4me2K9acK14acK18ac]
Avg Signal [1]: 0.02042
Avg Signal [2]: 0.4093
Avg Signal (53BP1 TTD): 0.5398
Avg Signal [3]: 0.4999

Ac-SGRGK(Ac)GGKGLGK(Ac)GGAKRHRKVLR-Peg-Biot [Peptide H4K5acK12ac]
Avg Signal [1]: 0.01271
Avg Signal [2]: 0.01286
Avg Signal (53BP1 TTD): 0.08013
Avg Signal [3]: 0.0343
Avg Signal [4]: 0.02456

Ac-APRKQLAT-NleAARKSAPS-Peg-Biot [Peptide H3.3K23-Nle]
Avg Signal [1]: 0.001042
Avg Signal (CST 9733 (anti-H3K27me3)): 0.0003783
Avg Signal [2]: 0.0003163
Avg Signal [4]: 0.003975

AR(Me2a)pTK(Me3)QTARKSTGGKAPRKQL-K(Biot)-NH2 [H3.1R2me2aT3pK4me3]
Avg Signal [1]: 0.007597
Avg Signal [2]: 0.002084
Avg Signal (53BP1 TTD): 0.03111
Avg Signal [3]: 0.001405

Ac-GKGGAKRHRK(Me2)VLRDNIQ-Peg-Biot [Peptide H4K20me2]
Avg Signal (CST 9733 (anti-H3K27me3)): 0.000354
Avg Signal [2]: 0.04168
Avg Signal (53BP1 TTD): 1
Avg Signal [3]: 0.06608
Avg Signal [4]: 0.01321

AR(Me)TK(Me2)QTARKSTGGKAPRKQL-K(Biot)-NH2 [H3.1R2me1K4me2]
Avg Signal (CST 9733 (anti-H3K27me3)): 0.0008431
Avg Signal [2]: 0.4048
Avg Signal (53BP1 TTD): 0.4867
Avg Signal [3]: 0.2976
Avg Signal [4]: 0.0007938

ACitTK(Me2)QTARKSTGGKAPRKQL-K(Biot)-NH2 [H3.1Cit2K4me2]
Avg Signal [1]: 0.002853
Avg Signal (CST 9733 (anti-H3K27me3)): 0.0001108
Avg Signal [2]: 0.3053
Avg Signal (53BP1 TTD): 0.6324
Avg Signal [3]: 0.2048
Avg Signal [4]: 2.176e-5

Ac-SGRGK(Ac)GGK(Me)GLGK(Ac)GGAK(Ac)RHRKVLR-Peg-Biot [H4K5acK8me1K12acK16ac]
Avg Signal (CST 9733 (anti-H3K27me3)): 7.434e-5
Avg Signal [2]: 0.003516
Avg Signal [3]: 0.006645
Avg Signal [4]: 0.001214

Ac-SGRGKGGKGLGKGGAK(Ac)RHRKVLR-Peg-Biot [Peptide H4K16ac]
Avg Signal [1]: 0.001899
Avg Signal [2]: 0.00197
Avg Signal (53BP1 TTD): 0.07097
Avg Signal [3]: 0.0007834

AR(Me2a)TK(Me2)QTARKSTGGKAPRKQL-K(Biot)-NH2 [H3.1R2me2aK4me2]
Avg Signal [1]: 0.008316
Avg Signal [2]: 0.325
Avg Signal (53BP1 TTD): 0.2614
Avg Signal [3]: 0.2655
Avg Signal [4]: 0.0008405

Ac-SGRGKGGKGLGK(Me)GGAKRHRKVLR-Peg-Biot [Peptide H4K12me1]
Avg Signal [1]: 0.0009635
Avg Signal (CST 9733 (anti-H3K27me3)): 0.0001351
Avg Signal [2]: 0.01394
Avg Signal [3]: 0.009402
Avg Signal [4]: 0.001118

AR(Me2a)TKQTARKSTGGKAPRKQL-K(Biot)-NH2 [Peptide H3.1R2me2a]
Avg Signal [1]: 0.004979
Avg Signal [2]: 0.0139
Avg Signal (53BP1 TTD): 0.05357
Avg Signal [3]: 0.1119
Avg Signal [4]: 0.00368

KSAPSpTGGVK(Me)KPHRYRPGT-G-K(Biot)-NH2 [H3.3K36meT32p]
Avg Signal [1]: 0.0077
Avg Signal (CST 9733 (anti-H3K27me3)): 0.002226
Avg Signal [2]: 0.00279
Avg Signal [3]: 0.005437
Avg Signal [4]: 0.00231

Ac-SGRGQGGQGLGK(Ac)GGAQRHRQVLR-Peg-Biot [H4K12acK5QK8QK16QK20Q]
Avg Signal [1]: 0.0006189
Avg Signal (CST 9733 (anti-H3K27me3)): 0.0003661
Avg Signal [2]: 0.0006964
Avg Signal [3]: 0.02356
Avg Signal [4]: 0.02202

ARTK(Me3)QTARK(Ac)pSTGGK(Ac)APRK(Ac)QL-K(Biot)-NH2 [H3.1K4me3K9acS10pK14acK18ac]
Avg Signal [1]: 0.01919
Avg Signal (CST 9733 (anti-H3K27me3)): 0.002027
Avg Signal [2]: 0.02489
Avg Signal (53BP1 TTD): 0.1468
Avg Signal [4]: 0.01388

Ac-pSGR(Me2a)GK(Ac)QGGKARAKAKTR-Peg-Biot [H2AS1pR3me2aK5ac]
Avg Signal (CST 9733 (anti-H3K27me3)): 0.0004026
Avg Signal [2]: 0.05587
Avg Signal (53BP1 TTD): 0.1102
Avg Signal [3]: 0.08644
Avg Signal [4]: 0.0003455

ARTK(Me3)QTARKSTGGKAPRK(Ac)QL-K(Biot)-NH2 [H3.1K4me3K18ac]
Avg Signal [1]: 0.03479
Avg Signal (CST 9733 (anti-H3K27me3)): 0.006885
Avg Signal [2]: 0.001684
Avg Signal (53BP1 TTD): 0.08895
Avg Signal [3]: 0.01446
Avg Signal [4]: 0.09175

Ac-APRKQLATKAARK(Me2)pSAPSTGG-Peg-Biot [H3.3K27me2S28p]
Avg Signal [1]: 0.003767
Avg Signal (CST 9733 (anti-H3K27me3)): 0.004223
Avg Signal [2]: 0.002617
Avg Signal [4]: 0.009021

AR(Me2s)TK(Me2)QTARKSTGGKAPRKQL-K(Biot)-NH2 [H3.1R2me2sK4me2]
Avg Signal (CST 9733 (anti-H3K27me3)): 0.003211
Avg Signal [2]: 0.3527
Avg Signal (53BP1 TTD): 0.2755
Avg Signal [3]: 0.2778

AR(Me2a)TK(Me3)QTARK(Ac)STGGK(Ac)APRK(Ac)QL-K(Biot)-NH2 [H3.1R2me2aK4me3K9acK14acK18ac]
Avg Signal [1]: 0.02578
Avg Signal (CST 9733 (anti-H3K27me3)): 0.007631
Avg Signal [2]: 0.01872
Avg Signal (53BP1 TTD): 0.02297
Avg Signal [3]: 0.04451
Avg Signal [4]: 0.01091

ARTK(Me2)QpTARK(Ac)STGGK(Ac)APRK(Ac)QL-K(Biot)-NH2 [H3.1K4me2T6pK9acK14acK18ac]
Avg Signal (CST 9733 (anti-H3K27me3)): 0.0006457
Avg Signal [2]: 0.3869
Avg Signal (53BP1 TTD): 0.3467
Avg Signal [3]: 0.2093

ARTK(Ac)QTARKSTGGK(Ac)APRK(Ac)QL-K(Biot)-NH2 [H3.1K4acK14acK18ac]
Avg Signal [1]: 0.004978
Avg Signal [2]: 0.005007
Avg Signal (53BP1 TTD): 0.1071
Avg Signal [3]: 0.001503

ARTAQTARK(Me2)STGGKA-Peg-Biot [Peptide H3.1K4AK9me2]
Avg Signal (MPP8 chromo): 0.07994
Avg Signal [4]: 0.007885

ARTK(Me)QTARK(Ac)STGGK(Ac)APRK(Ac)QL-K(Biot)-NH2 [H3.1K4me1K9acK14acK18ac]
Avg Signal [2]: 0.8066
Avg Signal (53BP1 TTD): 0.194
Avg Signal [3]: 0.9702
Avg Signal [4]: 0.005174

ARTK(Me2)QTARK(Ac)STGGKAPRK(Ac)QL-K(Biot)-NH2 [H3.1K4me2K9acK18ac]
Avg Signal [2]: 0.4042
Avg Signal (53BP1 TTD): 0.5101
Avg Signal [3]: 0.4062
Avg Signal [4]: 0.009454

ARTK(Me2)QpTARKSTGGKAPRKQL-K(Biot)-NH2 [Peptide H3.1K4me2T6p]
Avg Signal (CST 9733 (anti-H3K27me3)): 0.0001379
Avg Signal [2]: 0.3499
Avg Signal (53BP1 TTD): 0.2267
Avg Signal [3]: 0.1917
Avg Signal [4]: 0.000965
